Assay results reported in patent US10597391B2, “Urea-containing isoxazole derivatives as FXR agonists and methods of use thereof” (Enanta Pharmaceuticals, Inc., priority 2016, dated 2020).
Where two headings read alike, the source gives them in different places.

Biological target: T1, human FXR (NR1H4) (Homo sapiens, UniProt Q96RI1)
T1 sequence (Q96RI1 1-486): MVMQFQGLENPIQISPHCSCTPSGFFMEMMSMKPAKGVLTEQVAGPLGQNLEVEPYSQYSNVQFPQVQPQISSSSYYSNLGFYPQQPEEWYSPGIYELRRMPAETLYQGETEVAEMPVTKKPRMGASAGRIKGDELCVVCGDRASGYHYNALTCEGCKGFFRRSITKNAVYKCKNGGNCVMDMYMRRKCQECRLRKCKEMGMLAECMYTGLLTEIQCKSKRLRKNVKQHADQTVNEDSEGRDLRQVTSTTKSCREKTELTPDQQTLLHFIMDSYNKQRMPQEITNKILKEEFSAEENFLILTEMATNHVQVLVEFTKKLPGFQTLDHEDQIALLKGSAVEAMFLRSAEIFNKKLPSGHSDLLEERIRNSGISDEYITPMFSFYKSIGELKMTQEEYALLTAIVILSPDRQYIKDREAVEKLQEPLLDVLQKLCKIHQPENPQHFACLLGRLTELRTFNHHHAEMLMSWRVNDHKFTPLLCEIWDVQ
Assay: Human FXR (NR1H4) Assay: Gal4 promoter driven luciferase reporter transactivation in CHO cells (Indigo Bioscience kit IB00601)
Assay type: cell-based
Conditions: for Emax: CHO, read-out: Efficacy (%); for EC50: Human FXR (NR1H4) reporter assay in CHO cells
In short: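 CHO reporter cells expressing human NR1H4 with luciferase driven by an FXR-responsive promoter (Gal4 system), run per manufacturer's kit. Compounds applied to plated cells, then incubated a further 22 hours at 37° C. Luciferase luminescence read after detection reagent as a surrogate of FXR activation, giving potency and efficacy.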

[1] = efficacy normalized to CDCA set as 100%

| Structure (SMILES) | Emax [1] | EC50 (potency range, read-out: EC50) | Emax | EC50 (EC50, potency range) |
| --- | --- | --- | --- | --- |
| O=C(O)c1cccc(F)c1NC(=O)N1C2CCC1CC(OCc1c(-c3ccccc3OC(F)(F)F)noc1C1CC1)C2 (centres unmarked) [Example 768] | 33% | > 1000 nM |  |  |
| O=C(O)c1ccc(NC(=O)N2C3CCC2CC(OCc2c(-c4ccccc4OC(F)(F)F)noc2C2CC2)C3)nc1 (centres unmarked) [Example 769] | 132% | 100 to 1000 nM |  |  |
| O=C(O)c1ccnc(NC(=O)N2C3CCC2CC(OCc2c(-c4ccccc4OC(F)(F)F)noc2C2CC2)C3)c1 (centres unmarked) [Example 770] | 93% | > 1000 nM |  |  |
| O=C(O)c1cccc(NC(=O)N2C3CCC2CC(OCc2c(-c4ccccc4OC(F)(F)F)noc2C2CC2)C3)n1 (centres unmarked) [Example 771] | 54% | > 1000 nM |  |  |
| O=C(O)c1cccnc1NC(=O)N1C2CCC1CC(OCc1c(-c3ccccc3OC(F)(F)F)noc1C1CC1)C2 (centres unmarked) [Example 772] | 31% | > 1000 nM |  |  |
| O=C(Nc1cccc(-c2ccccc2)c1)N1C2CCC1CC(NCc1c(-c3c(Cl)cccc3Cl)noc1C1CC1)C2 (centres unmarked) [Example 773] |  |  | 135% | 10 to 100 nM |
| COC(=O)c1ccc(NC(=O)N2C3CCC2CC(OCc2c(-c4c(Cl)cccc4Cl)noc2C2CC2)C3)cc1-c1cnn(C)c1 (centres unmarked) [Example 774] | 102% | < 10 nM |  |  |
| CCOC(=O)c1cnc2ccc(NC(=O)N3C4CCC3CC(OCc3c(-c5c(Cl)cccc5Cl)noc3C3CC3)C4)cc2c1 (centres unmarked) [Example 775] | 82% | < 10 nM |  |  |
| Cn1cc(-c2cc(NC(=O)N3C4CCC3CC(OCc3c(-c5c(Cl)cccc5Cl)noc3C3CC3)C4)ccc2C(=O)O)cn1 (centres unmarked) [Example 776] | 11% | 100 to 1000 nM |  |  |
| CCOC(=O)c1ccc(NC(=O)N2C3CCC2CC(OCc2c(-c4c(Cl)cccc4Cl)noc2C2CC2)C3)cc1-c1cncnc1 (centres unmarked) [Example 778] | 248% | < 10 nM |  |  |
| O=C(O)c1cnc2cc(NC(=O)N3C4CCC3CC(OCc3c(-c5c(Cl)cccc5Cl)noc3C3CC3)C4)ccc2c1 (centres unmarked) [Example 779] | 50% | 10 to 100 nM |  |  |
| O=C(NCCS(=O)(=O)O)c1ccc(NC(=O)N2C3CCC2CC(OCc2c(-c4c(Cl)cccc4Cl)noc2C2CC2)C3)c(F)c1 (centres unmarked) [Example 780] | 0% | 100 to 1000 nM |  |  |
| COC(=O)CNC(=O)c1ccc(NC(=O)N2C3CCC2CC(OCc2c(-c4c(Cl)cccc4Cl)noc2C2CC2)C3)c(F)c1 (centres unmarked) [Example 781] | 100% | 10 to 100 nM |  |  |
| O=C(O)c1ccc(NC(=O)N2C3CCC2CC(OCc2c(-c4c(Cl)cccc4Cl)noc2C2CC2)C3)cc1-c1cncnc1 (centres unmarked) [Example 782] | 20% | 10 to 100 nM |  |  |
| O=C(O)CNC(=O)c1ccc(NC(=O)N2C3CCC2CC(OCc2c(-c4c(Cl)cccc4Cl)noc2C2CC2)C3)c(F)c1 (centres unmarked) [Example 783] | 0% | 100 to 1000 nM |  |  |
| COC(=O)c1ccc(NC(=O)N2C3CCC2CC(OCc2c(-c4c(Cl)cccc4Cl)noc2C2CC2)C3)cc1-c1ccc(OC)nc1 (centres unmarked) [Example 784] | 102% | < 10 nM |  |  |
| COC(=O)c1ccc2nc(NC(=O)N3C4CCC3CC(OCc3c(-c5c(Cl)cccc5Cl)noc3C3CC3)C4)ccc2c1 (centres unmarked) [Example 785] | 46% | 10 to 100 nM |  |  |
| COC(=O)c1ccc(NC(=O)N2C3CCC2CC(OCc2c(-c4c(Cl)cccc4Cl)noc2C2CC2)C3)nc1 (centres unmarked) [Example 786] | 44% | 10 to 100 nM |  |  |
| COc1ccc(-c2cc(NC(=O)N3C4CCC3CC(OCc3c(-c5c(Cl)cccc5Cl)noc3C3CC3)C4)ccc2C(=O)O)cn1 (centres unmarked) [Example 787] | 97% | < 10 nM |  |  |
| O=C(O)c1ccc(NC(=O)N2C3CCC2CC(OCc2c(-c4c(Cl)cccc4Cl)noc2C2CC2)C3)nc1 (centres unmarked) [Example 788] | 31% | 10 to 100 nM |  |  |
| O=C(O)c1ccc2nc(NC(=O)N3C4CCC3CC(OCc3c(-c5c(Cl)cccc5Cl)noc3C3CC3)C4)ccc2c1 (centres unmarked) [Example 789] | 57% | 10 to 100 nM |  |  |
| CC1(S(=O)(=O)NC(=O)c2ccc(NC(=O)N3C4CCC3CC(OCc3c(-c5c(Cl)cccc5Cl)noc3C3CC3)C4)cc2-c2cncnc2)CC1 (centres unmarked) [Example 790] | 49% | 10 to 100 nM |  |  |

| Structure (SMILES) | Emax [1] | EC50 (potency range, read-out: EC50) | Emax | EC50 (EC50, potency range) |
| --- | --- | --- | --- | --- |
| CC1(S(=O)(=O)NC(=O)c2cnc3ccc(NC(=O)N4C5CCC4CC(OCc4c(-c6c(Cl)cccc6Cl)noc4C4CC4)C5)cc3c2)CC1 (centres unmarked) [Example 791] | 11% | 100 to 1000 nM |  |  |
| COC(=O)c1cc(OC)c(NC(=O)N2C3CCC2CC(OCc2c(-c4c(Cl)cccc4Cl)noc2C2CC2)C3)cc1-c1ccccc1 (centres unmarked) [Example 792] | 92% | < 10 nM |  |  |
| COc1cc(C(=O)O)c(-c2ccccc2)cc1NC(=O)N1C2CCC1CC(OCc1c(-c3c(Cl)cccc3Cl)noc1C1CC1)C2 (centres unmarked) [Example 793] | 99% | < 10 nM |  |  |
| COC(=O)c1cc(F)c(NC(=O)N2C3CCC2CC(OCc2c(-c4c(Cl)cccc4Cl)noc2C2CC2)C3)cc1-c1ccccc1 (centres unmarked) [Example 794] | 80% | < 10 nM |  |  |
| COC(=O)c1ccc(NC(=O)N2C3CCC2CC(OCc2c(-c4c(Cl)cccc4Cl)noc2C2CC2)C3)c(F)c1-c1ccccc1 (centres unmarked) [Example 795] | 44% | 10 to 100 nM |  |  |
| COC(=O)c1ccc(NC(=O)N2C3CCC2CC(OCc2c(-c4c(Cl)cccc4Cl)noc2C2CC2)C3)cc1-c1ccc(C(F)(F)F)nc1 (centres unmarked) [Example 796] | 95% | < 10 nM |  |  |
| O=C(O)c1cc(F)c(NC(=O)N2C3CCC2CC(OCc2c(-c4c(Cl)cccc4Cl)noc2C2CC2)C3)cc1-c1ccccc1 (centres unmarked) [Example 797] | 129% | < 10 nM |  |  |
| O=C(O)c1ccc(NC(=O)N2C3CCC2CC(OCc2c(-c4c(Cl)cccc4Cl)noc2C2CC2)C3)c(F)c1-c1ccccc1 (centres unmarked) [Example 798] | 124% | 10 to 100 nM |  |  |
| O=C(O)c1ccc(NC(=O)N2C3CCC2CC(OCc2c(-c4c(Cl)cccc4Cl)noc2C2CC2)C3)cc1-c1ccc(C(F)(F)F)nc1 (centres unmarked) [Example 799] | 133% | < 10 nM |  |  |
| COC(=O)c1ccc(NC(=O)N2C3CCC2CC(OCc2c(-c4c(Cl)cccc4Cl)noc2C2CC2)C3)c(C2CC2)c1 (centres unmarked) [Example 800] | 54% | 10 to 100 nM |  |  |
| O=C(O)c1ccc(NC(=O)N2C3CCC2CC(OCc2c(-c4c(Cl)cccc4Cl)noc2C2CC2)C3)c(C2CC2)c1 (centres unmarked) [Example 801] | 70% | 10 to 100 nM |  |  |
| COC(=O)c1ccc(NC(=O)N2C3CCC2CC(OCc2c(-c4c(Cl)cccc4Cl)noc2C2CC2)C3)c(C#N)c1 (centres unmarked) [Example 802] | 28% | 100 to 1000 nM |  |  |
| CCOC(=O)c1ccc2nc(NC(=O)N3C4CCC3CC(OCc3c(-c5c(Cl)cccc5Cl)noc3C3CC3)C4)sc2c1 (centres unmarked) [Example 804] | 90% | 10 to 100 nM |  |  |
| O=C(O)c1ccc2nc(NC(=O)N3C4CCC3CC(OCc3c(-c5c(Cl)cccc5Cl)noc3C3CC3)C4)sc2c1 (centres unmarked) [Example 805] | 104% | 10 to 100 nM |  |  |
| CC(C)(C)c1ccc(C(=O)NC(=O)N2C3CCC2CC(OCc2c(-c4c(Cl)cccc4Cl)noc2C2CC2)C3)cc1 (centres unmarked) [Example 806] | 5% | 10 to 100 nM |  |  |
| O=C(O)c1ccc(NC(=O)N2C3CCC2CC(OCc2c(-c4ccccc4C(F)(F)F)noc2C2CC2)C3)c(F)c1 (centres unmarked) [Example 807] | 42% | 10 to 100 nM |  |  |
| O=C(O)c1ccc(NC(=O)N2C3CCC2CC(OCc2c(-c4c(F)cccc4F)noc2C2CC2)C3)c(F)c1 (centres unmarked) [Example 808] | 32% | 10 to 100 nM |  |  |
| O=C(O)c1ccc(NC(=O)N2C3CCC2CC(OCc2c(-c4ccccc4C4CC4)noc2C2CC2)C3)c(F)c1 (centres unmarked) [Example 809] | 43% | 10 to 100 nM |  |  |
| CCOc1cc(C(=O)O)ccc1NC(=O)N1C2CCC1CC(OCc1c(-c3c(F)cccc3F)noc1C1CC1)C2 (centres unmarked) [Example 810] | 64% | 10 to 100 nM |  |  |
| CCOc1cc(C(=O)O)ccc1NC(=O)N1C2CCC1CC(OCc1c(-c3ccccc3C3CC3)noc1C1CC1)C2 (centres unmarked) [Example 811] | 66% | 10 to 100 nM |  |  |
| CCOc1cc(C(=O)O)ccc1NC(=O)N1C2CCC1CC(OCc1c(-c3ccccc3C(F)(F)F)noc1C1CC1)C2 (centres unmarked) [Example 812] | 102% | 10 to 100 nM |  |  |
